Test results: patent US10450337B2, “Pharmaceutical compounds” (Rafael Pharmaceuticals, Inc., priority 2014, dated 2019)

Experiments:
Assay type in all cases: cell-based
[1] = tested on: SF539 human gliosarcoma cells; test: Cell kill screening, CellTiter Glo viability assay, SF539; conditions: 24 hours treatment, 0.5% serum and 0.05% DMSO, relative to untreated control; for viability at 50 µM: SF-539, 50 μM, read-out: % avg live cells @ 50 μM (% Viable Cells Remaining); for viability at 100 µM: SF-539, 100 μM, read-out: % avg live cells @ 100 μM (% Viable Cells Remaining)
Text: (§1) The objective of this investigation was to assess the in vitro cell killing activities of analogs of lipoic acid in BXPC3 human pancreatic, 11460 non small lung carcinoma, and SF539 human gliosarcoma cancer cells.
(§2) Three human tumor cell types, BXPC3 human pancreatic cancer, H460 non small lung carcinoma, and SF539 human gliosarcoma, were used in this investigation. The BXPC3 and H460 cells were originally obtained from American Type Cell Culture (ATCC). The SF539 cells were originally obtained from the NCI AIDS and Cancer Specimen Bank (ACSB). All tumor cells were maintained at 37° C. in a humidified 5% CO2 atmosphere in T75 tissue culture flasks containing 20 mL of Roswell Park Memorial Institute (RPMI) 1640 containing 2 mM L-glutamine, 10% FBS and 1% penicillin and streptomycin (100 IU/mL penicillin and 100 μg/mL streptomycin). The tumor cells were split at a ratio of 1:5 every 4-5 days by trypsinization and resuspended in fresh medium in a new flask. Cells were harvested for experiments at 70-90% confluency.
(§3) Stock solutions of each analog were prepared at a concentration of 200 and 100 mM in DMSO. Five μL of this solution was diluted in 10.0 mL of 0.5% serum containing RPMI media to give the desired 100 μM and 50 μM solutions in 0.05% DMSO.
(§4) The cancer cells were seeded at 4000 cells/well for H460 cells and 6000 cells/well for BXPC3 and SF 539 cells and incubated 24 hours. The killing activity of analogs was assayed at 50 μM and 100 μM concentrations. The tumor cells were treated for 24 hours with the test article, and after 24 hours of treatment the number of viable tumor cells was determined using the CTG assay.
(§5) The number of cells targeted for the study is 4×10^3 per well for H460 cells and 6×10^3 per well for BXPC3 and SF539 cells in 100 μL of medium. The actual number of cells were counted and seeded in the wells of a 96 well-plate. The cells were incubated for approximately 24 hours before addition of test article.
(§6) The media in the plate was removed by aspiration, and 100 μL of the test article at a final concentration of 50 μM or 100 μM was added to the cells. After exposure to the test articles for 24 hours, the number of viable cells in each well was determined and the percent of viable cells relative to control (in the absence of test article) were calculated. Additionally, a set of wells was treated with cell culture medium in the absence of cells to obtain a value for background luminescence. A separate set of cells was seeded at the same time in a clear 96-well plate and observed under the microscope at 24 hours, following addition of the test article to estimate the amount of cells present after treatment.
(§7) The number of viable cells was determined by using the CTG assay. Specifically, reagents were mixed and allowed to come to room temperature according to instructions from Promega, Inc. (Madison, Wis.). Cell plates were removed from the cell culture incubator and left on the bench for thirty minutes until they reached room temperature. 100 μL per well of CTG reagent was added with the 12-channel Eppendorf pipettor. The cells were lysed by shaking the plate for two minutes in a shaker. The cells were kept in room temperature for ten minutes to stabilize the luminescent signal. The luminescence was measured using the FLUOstar OPTIMA plate reader (BMG Labtech, Inc., Durham, N.C.).
(§8) Data from luminescence readings was copied onto EXCEL spreadsheets, and cell growth relative to untreated cells was calculated, using the following equation: […]

[2] = tested on: H460 non small lung carcinoma cells; test: Cell kill screening, CellTiter Glo viability assay, H460; conditions: Homo sapiens, 24 hours treatment, 0.5% serum and 0.05% DMSO, relative to untreated control; for viability at 50 µM: NCI-H460, 50 μM, read-out: % avg live cells @ 50 μM (% Viable Cells Remaining); for viability at 100 µM: NCI-H460, 100 μM, read-out: % avg live cells @ 100 μM (% Viable Cells Remaining)
Text: as §1, §2, §3, §4, §5, §6, §7, §8

[3] = tested on: BXPC3 human pancreatic cancer cells; test: Cell kill screening, CellTiter Glo viability assay, BXPC3; conditions: 24 hours treatment, 0.5% serum and 0.05% DMSO, relative to untreated control; for viability at 50 µM: BXPC-3, 50 μM, read-out: % avg live cells @ 50 μM (% Viable Cells Remaining); for viability at 100 µM: BXPC-3, 100 μM, read-out: % avg live cells @ 100 μM (% Viable Cells Remaining)
Text: as §1, §2, §3, §4, §5, §6, §7, §8

O=CCCCCC(CCSCc1ccccc1)SCc1ccccc1 (stereo not shown) [A]
viability at 50 µM [1]: 29.4%
viability at 100 µM [1]: 28.1%
viability at 50 µM [2]: 44.9%
viability at 100 µM [2]: 29.9%
viability at 50 µM [3]: 37.6%
viability at 100 µM [3]: 26.3%

O=C(O)CCCCCCC(CCSCc1ccccc1)SCc1ccccc1 (stereo not shown) [C]
viability at 50 µM [1]: 5%
viability at 100 µM [1]: 20%
viability at 50 µM [2]: 3%
viability at 100 µM [2]: 15%
viability at 50 µM [3]: 2%
viability at 100 µM [3]: 6%

O=C(O)/C=C/CCCCC(CCSCc1ccccc1)SCc1ccccc1 (stereo not shown) [D]
viability at 50 µM [1]: 9.9%
viability at 100 µM [1]: 0%
viability at 50 µM [2]: 15.4%
viability at 100 µM [2]: 0%

O=C(O)CCCCC(CCNC(=O)OCc1ccccc1)NC(=O)OCc1ccccc1 (stereo not shown) [G]
viability at 50 µM [1]: 97.3%
viability at 100 µM [1]: 79.6%
viability at 50 µM [2]: 89.1%
viability at 100 µM [2]: 87%
viability at 50 µM [3]: 82%
viability at 100 µM [3]: 72.6%

O=C(CCCCC(CCSCc1ccccc1)SCc1ccccc1)OCc1ccccc1 (stereo not shown) [H]
viability at 50 µM [1]: 97%
viability at 100 µM [1]: 95%
viability at 50 µM [2]: 110%
viability at 100 µM [2]: 101%
viability at 50 µM [3]: 92%
viability at 100 µM [3]: 84%

NC(=O)CCCCC(CCSCc1ccccc1)SCc1ccccc1 (stereo not shown) [I]
viability at 50 µM [1]: 1%
viability at 100 µM [1]: 1%
viability at 50 µM [2]: 1%
viability at 100 µM [2]: 0%
viability at 50 µM [3]: 1%
viability at 100 µM [3]: 0%

O=C(CCCCC(CCSCc1ccccc1)SCc1ccccc1)N1CCOCC1 (stereo not shown) [J]
viability at 50 µM [1]: 38.2%
viability at 100 µM [1]: 15.9%
viability at 50 µM [2]: 37.2%
viability at 100 µM [2]: 15.8%
viability at 50 µM [3]: 8.2%
viability at 100 µM [3]: 4.6%

O=C(CCCCC(CCSCc1ccccc1)SCc1ccccc1)NCCN1CCOCC1 (stereo not shown) [K]
viability at 50 µM [1]: 0%
viability at 100 µM [1]: 0%
viability at 50 µM [2]: 0%
viability at 100 µM [2]: 0%
viability at 50 µM [3]: 1%
viability at 100 µM [3]: 0%

CCN(CC)C(=O)CCCCC(CCSCc1ccccc1)SCc1ccccc1 (stereo not shown) [L]
viability at 50 µM [1]: 58%
viability at 100 µM [1]: 32%
viability at 50 µM [2]: 58%
viability at 100 µM [2]: 18%
viability at 50 µM [3]: 28%
viability at 100 µM [3]: 14%

CCN(CC)CCNC(=O)CCCCC(CCSCc1ccccc1)SCc1ccccc1 (stereo not shown) [M]
viability at 50 µM [1]: 3.1%
viability at 100 µM [1]: 1.9%
viability at 50 µM [2]: 20.5%
viability at 100 µM [2]: 8.5%
viability at 50 µM [3]: 10.8%
viability at 100 µM [3]: 1.4%

O=C(CCCCC(CCSCc1ccccc1)SCc1ccccc1)NCCS(=O)(=O)O (stereo not shown) [N]
viability at 50 µM [1]: 104%
viability at 100 µM [1]: 75%
viability at 50 µM [2]: 119%
viability at 100 µM [2]: 89%
viability at 50 µM [3]: 126%
viability at 100 µM [3]: 95%
